Test results from US20090022757A1, “Method for treating photoreceptor cell degeneration” (priority 2007, published 2009).

Tests used:
[1] = system: MNU-induced retinal photoreceptor cell degeneration; experiment: Electroretinogram of rats with MNU-induced retinal photoreceptor cell degeneration treated with GLS oil and/or DHA; format: in vivo, Sprague Dawley rats; set-up: a-Wave Amplitude / b-Wave Amplitude: unit not given here; settings: MNU 40 mg/kg i.p.
Experimental: Animals and grouping: One hundred and five 50-day-old Sprague Dawley rats were used in the experiment. Twenty-five rats were selected randomly as the normal control (receiving an excipient via gastric gavage). Eighty rats were used for establishing the photoreceptor cell degeneration model and were treated by intraperitoneal injection with a single dose of MNU at 40 mg/kg. The MNU-injected rats were randomly divided into four experimental groups:
(1) GLS oil treatment group (receiving GSL oil and an excipient via gastric gavage);
(2) GLS oil+DHA treatment group (receiving GSL oil, DHA, and an excipient via gastric gavage);
(3) DHA control group (receiving DHA and an excipient via gastric gavage;
(4) Model control group (receiving an excipient via gastric gavage).
The excipient used in this experiment is hydroxypropyl methyl cellulose. The treatment started three days before the administration of MNU (day-3). Each animal in Groups 1-3 received a daily gastric feeding of GSL oil only, GSL oil and DHA (2 mg/kg), or DHA (2 mg/kg) only, in 1 ml 0.5% hydroxypropyl methyl cellulose. Animals in Group 4 received 1 ml 0.5% hydroxypropyl methyl cellulose.
Electroretinogram examination: The pupils of rats were dilated as described in Example 1. The electroretinogram examinations were conducted under the following conditions:
A Neuropack II electrophysiological analyzer was employed to measure the visual electrophysiology.

[2] = system: MNU-induced retinal photoreceptor cell degeneration; experiment: Pathological examination of MNU-induced retinal photoreceptor cell damage in rats treated with GLS oil and/or DHA; settings: MNU 40 mg/kg i.p., damage score
[3] = daily gastric gavage from day -3, day 1
[4] = daily gastric gavage from day -3, day 3
[5] = daily gastric gavage from day -3, day 5
[6] = daily gastric gavage from day -3, day 7
[7] = daily gastric gavage from day -3, day 10

## CC/C=C\C/C=C\C/C=C\C/C=C\C/C=C\C/C=C\CCC(=O)O [DHA, Docosahexaenoic acid]
[1]; [3]
  a-Wave Amplitude: 18.43 ± 17.94
  a-Wave Latent Period: 10.35 ± 9.02
  b-Wave Amplitude: 56.90 ± 61.16
  b-Wave Latent Period: 43.92 ± 38.08
[1]; [4]
  a-Wave Amplitude: 14.13 ± 15.71
  a-Wave Latent Period: 8.64 ± 9.91
  b-Wave Amplitude: 59.43 ± 65.22
  b-Wave Latent Period: 35.10 ± 37.34
[1]; [5]
  a-Wave Amplitude: 10.27 ± 11.15
  a-Wave Latent Period: 8.30 ± 8.81
  b-Wave Amplitude: 47.85 ± 52.05
  b-Wave Latent Period: 34.92 ± 36.97
[1]; [6]
  a-Wave Amplitude: 16.61 ± 18.95
  a-Wave Latent Period: 9.01 ± 9.56
  b-Wave Amplitude: 53.93 ± 58.06
  b-Wave Latent Period: 36.24 ± 38.45
[1]; [7]
  a-Wave Amplitude: 19.70 ± 17.97
  a-Wave Latent Period: 10.42 ± 9.10
  b-Wave Amplitude: 64.71 ± 57.60
  b-Wave Latent Period: 43.23 ± 37.88
[1]; n = 10, day 3
  Number of Eyes with extinguished electroretinogram: 5
[1]; n = 10, day 5
  Number of Eyes with extinguished electroretinogram: 5
[1]; n = 10, day 7
  Number of Eyes with extinguished electroretinogram: 5
[1]; n = 10, day 10
  Number of Eyes with extinguished electroretinogram: 4
[1]; n = 10, day 11
  Number of Eyes with extinguished electroretinogram: 4
[2]; day 1
  The Damage Degree of the Retinal Photoreceptor Cell Pathology: 1.40 ± 0.52
[2]; day 3
  The Damage Degree of the Retinal Photoreceptor Cell Pathology: 2.2 ± 1.32
[2]; day 5
  The Damage Degree of the Retinal Photoreceptor Cell Pathology: 2.9 ± 2.85
[2]; day 7
  The Damage Degree of the Retinal Photoreceptor Cell Pathology: 2.80 ± 2.97
[2]; day 10
  The Damage Degree of the Retinal Photoreceptor Cell Pathology: 2.60 ± 2.95
